These are literature values, as cited in patent publication US5618841A, “Composition of iodophor teat dip for the prevention of mastitis and a process for using the same” (priority 1994, dated 1997).

The subject of one series is microorganism. To be noted: rank order.
The conditions of series [1]: first ionization constant.
The conditions of series [2]: 25° C.

In the case of `O=C(O)C(O)c1ccccc1` (stereo not drawn) [Mandelic acid], the “relative antimicrobial strength, with respect to citric acid” value (from here on “relative antimicrobial strength”) in the series with microorganism was “Mandelic acid>Lactic acid>Glycolic acid>Malic acid>Citric acid”. In addition, the pKa in series [1] is on record as 3.39. Take `O=C(O)CO` [Glycolic acid]: the “relative antimicrobial strength” value in the series with microorganism is recorded as “Mandelic acid>Lactic acid>Glycolic acid>Malic acid>Citric acid”. Turning to `CC(O)C(=O)O` (stereo not drawn) [Lactic acid], in the series on microorganism, the “relative antimicrobial strength” value was “Mandelic acid>Lactic acid>Glycolic acid>Malic acid>Citric acid”. For `II` [elemental iodine], the solubility in water in series [2] is reported as 0.03%. Take `O=C(O)CC(O)C(=O)O` (stereo not drawn) [Malic acid]: in the series on microorganism, the “relative antimicrobial strength” value is on record as “Mandelic acid>Lactic acid>Glycolic acid>Malic acid>Citric acid”.

Broadly, the pKa is the pH at which an ionisable group is half protonated.
